Measurements reported in patent US8637028B2, “Adjuvant incorporation in immunonanotherapeutics” (President and Fellows of Harvard College, priority 2008, dated 2014).

Key:
[1] = Anti-nicotine IgG in immunized mice (ELISA); assay type: in vivo, mouse; conditions: FIGS. 36 and 37
[2] = test system: OT-II CD4 T cells; test: In vivo CD4 T cell activation (CFSE-labeled OT-II cells); parameters: species or system mouse; conditions: with CpG adjuvant, three days after footpad immunization
Method: Subsequently, immunization experiments were performed by injecting one footpad with free OVA or with nanoparticles composed of either PLA or PLGA that encapsulated an equivalent amount of OVA as a model antigen. All antigenic mixtures also contained CpG (a TLR9 agonist) as an adjuvant. The animals were injected, sacrificed three days after immunization, and OT-II T cell activation was assessed by flow cytometry in single-cell suspensions from different tissues.
By contrast, activated T cells divide and in the process split the fluorescent dye evenly between the two daughter cells resulting in an incremental decrease in fluorescence intensity upon each successive division. Thus, the greater the left shift in CFSE, fluorescence the stronger T cells were activated.

Molecule | production of nicotine antibodies [1] | local T cell proliferation in distal lymphoid tissues (brachial lymph node, spleen) [2]
CN1CCCC1c1cccnc1 (centres unmarked) [free nicotine, nicotine] | does not elicit the production of nicotine antibodies | 
free OVA: free chicken ovalbumin model antigen |  | only undivided cells or cells with very low CFSE content
